Reference: EPA's ToxValDB 9.5

Tests used:
Bird = conditions: reproductive, in ovo, M/F, White leghorn chicken, generation: F1
Labeo boga = conditions: whole body, M/F
Monkey = conditions: oral, capsule, Cynomolgus; for NOEL: short-term, duration: 29 days, blood: basophils + blood: eosinophils + blood: lymphocytes + blood: monocytes + blood: reticulocytes + blood: segmented neutrophils + blood…
Rattus norvegicus = conditions: oral
[1] = system: Crangonyx richmondensis ssp. laurentianus; conditions: whole body, Monoporeia affinis, parasite infection
Mus musculus = conditions: oral
[2] = system: Crangonyx richmondensis ssp. laurentianus; test: FEL; higher = less toxic; conditions: short-term; duration: 22 day; whole body; M/F; Monoporeia affinis; parasite infection
[3] = chronic, duration: 26 weeks, M, lymphocyte count (%) (Day 182)
[4] = chronic, duration: 14 weeks, diet, M, Crl:CD(SD) BR, non-segmented neutrophils (N-SEG)
[5] = reproduction developmental, gavage, M/F, Sprague-Dawley, generation: F1, F1: IL-1beta mRNA level relative change: cortex (PND 0) + F1: IL-1beta mRNA level relative change: cortex (PND 21) + F1: IL-1beta mRNA level…
[6] = reproduction developmental, gavage, M/F, Sprague-Dawley, generation: F1, F1: TNFalpha mRNA level relative change: cortex (PND 0) + F1: TNFalpha mRNA level relative change: cortex (PND 21)
[7] = short-term, duration: 28 days, diet, F, Sprague-Dawley, spleen: spleen: relative weight + thymus: apoptotic cells in the thymic cortex + thymus: thymus: absolute weight + Total serum IgM level
[8] = short-term, duration: 28 days, diet, M, Sprague-Dawley, spleen: spleen: absolute weight + thymus: thymus: absolute weight
[9] = short-term, duration: 28 days, diet, M, Sprague-Dawley, thymus: apoptotic cells in the thymic cortex + thymus: apoptotic cells in the thymic medulla
[10] = developmental, duration: 17 days, F, Developmental: Decrease in number of successful birthsbirths
[11] = short-term, duration: 3 weeks, M, BALB/c, Immunotoxicological: ~36% decrease in spleen index during recovery / ~15% inhibition in Con Ainduced T-cell proliferation during treatment…
[12] = short-term, duration: 21 days, F, B6C3F1, Immunotoxicological: Decreased host resistance to influenza virus
[13] = subchronic, duration: 3 months, M/F, C57BL/6, Neurological: Impaired spatial learning and memory
[14] = subchronic, duration: 5 weeks, M, Body Weight: 17% decrease in body weight + Reproductive: Decreases in sperm concentration, serum testosterone levels / vacuolation in …

For `O=S(=O)(O)C(F)(F)C(F)(F)C(F)(F)C(F)(F)C(F)(F)C(F)(F)C(F)(F)C(F)(F)F` [Perfluorooctanesulfonic acid], the “LOEL (mg ion/kg egg)” value (Bird; F1: IgM and IgY antibody titer (SRBC) + F1: plasma lysozyme activity + F1: spleen: spleen: relative weight) was 0.93, the “NOEL (mg ion/kg egg)” value (Bird; F1: IgM antibody titer (SRBC) + F1: IgY antibody titer (SRBC) + F1: lymph node: normalized bursa mass + F1: PHA skin test (DTH response) + …) was 4.6 and the NOEL (Labeo boga; short-term, duration: 7 day, Oryzias Melastigma, mRNA level for C8 gene + mRNA level for CAT gene + mRNA level for CCL20 gene + mRNA level for Cd3 gene + mRNA level for GPx gene) was 1 mg/L. It also gave an LOEL (Labeo boga; short-term, duration: 7 day, Oryzias Melastigma, mRNA level for IL1b gene) of 0.25 mg/L, an LOEL (Labeo boga; short-term, duration: 10 day, Medaka, relative IL-1-beta mRNA expression + relative IL-8 mRNA expression + relative TNF-alpha mRNA expression) of 1 mg/L and an NOEL (Labeo boga; short-term, duration: 16 day, Thicklip grey mullet, relative apoA1 expression in liver (Day 2) + relative cc3 expression in liver (Day 16) + relative cc3 expression in liver (Day 2) + relative…) of 2 ppm. It also gave an LOEL (Labeo boga; short-term, duration: 16 day, Thicklip grey mullet, relative apoA1 expression in liver (Day 16) + relative fabp expression in liver (Day 2)) of 2 ppm, an LOEL (Labeo boga; short-term, duration: 21 day, Atlantic Salmon, cortisol) of 0.1 mg/L and an LOEL (Labeo boga; subchronic, duration: 48 day, Atlantic Salmon, cortisol) of 0.1 mg/L. The NOEL (Labeo boga; subchronic, duration: 48 day, Atlantic Salmon, fresh weight + length + thymus: thymus somatic index + thymus: thymus volume) was 0.1 mg/L, the LOEL (Labeo boga; subchronic, duration: 56 day, Atlantic Salmon, cortisol) was 0.1 mg/L and the “NOEL (TAD)” value (Monkey; chronic, duration: 26 weeks, F, lymphocyte count (Day 182) + lymphocyte count (LYMPH) (Day 182) + segmented neutrophil count (Day 182) + segmented neutrophil count (N-SEG…) was 115 mg/kg-day. The “LOEL (TAD)” value (Monkey; [3]) was 115 mg/kg-day, the “NOEL (TAD)” value (Monkey; [3]) was 22.9 mg/kg-day and the “NOEL (TAD)” value (Monkey; chronic, duration: 26 weeks, M, lymphocyte count (LYMPH) (Day 182) + segmented neutrophil count (%) (Day 182) + segmented neutrophil count (N-SEG) (Day 182)) was 115 mg/kg-day. For the same compound, the NOEL (Monkey; F) was 2 mg/kg-day, the NOEL (Monkey; M) was 2 mg/kg-day and the NOEL (Rattus norvegicus; chronic, duration: 14 weeks, diet, F, Crl:CD(SD) BR, non-segmented neutrophils (N-SEG)) was 1.56 mg/kg-day. The LOEL (Rattus norvegicus; [4]) was 1.33 mg/kg-day, the NOEL (Rattus norvegicus; [4]) was 0.34 mg/kg-day and the NOEL (Rattus norvegicus; chronic, duration: 104 weeks, diet, F, Crl:CD(SD) BR, blood: basophils + blood: eosinophils + blood: monocytes + blood: white blood cell count (WBC) + spleen: spleen: absolute weight (53 weeks…) was 1.56 mg/kg-day. For the same compound, the LOEL (Rattus norvegicus; chronic, duration: 104 weeks, diet, F, Crl:CD(SD) BR, blood: lymphocytes + blood: segmented neutrophils) was 0.039 mg/kg-day, the NOEL (Rattus norvegicus; chronic, duration: 104 weeks, diet, F, Crl:CD(SD) BR, spleen: spleen: absolute weight (14 weeks)) was 0.39 mg/kg-day and the LOEL (Rattus norvegicus; chronic, duration: 104 weeks, diet, F, Crl:CD(SD) BR, spleen: spleen: absolute weight (14 weeks) + spleen: spleen: relative weight (53 weeks)) was 1.56 mg/kg-day. It also gave an NOEL (Rattus norvegicus; chronic, duration: 104 weeks, diet, M, Crl:CD(SD) BR, blood: basophils + blood: eosinophils + blood: monocytes + blood: white blood cell count (WBC) + spleen: spleen: absolute weight (14 weeks…) of 1.56 mg/kg-day, an LOEL (Rattus norvegicus; chronic, duration: 104 weeks, diet, M, Crl:CD(SD) BR, blood: lymphocytes + blood: segmented neutrophils) of 0.039 mg/kg-day and an LOEL (Rattus norvegicus; chronic, duration: 104 weeks, diet, M, Crl:CD(SD) BR, spleen: spleen: absolute weight (53 weeks) + spleen: spleen: relative weight (53 weeks)) of 1.56 mg/kg-day. The LOEL (Rattus norvegicus; [5]) was 0.6 mg/kg-day, the NOEL (Rattus norvegicus; [5]) was 0.1 mg/kg-day and the LOEL (Rattus norvegicus; reproduction developmental, gavage, M/F, Sprague-Dawley, generation: F1, F1: IL-1beta mRNA level relative change: hippocampus (PND 0) + F1: TNFalpha mRNA level relative change: hippocampus (PND 0)) was 0.1 mg/kg-day. For the same compound, the LOEL (Rattus norvegicus; [6]) was 2 mg/kg-day, the NOEL (Rattus norvegicus; [6]) was 0.6 mg/kg-day and the NOEL (Rattus norvegicus; short-term, duration: 28 days, diet, F, Sprague-Dawley, blood: blood CD3+ cells + blood: blood CD3+CD4+ cells + blood: blood CD3+CD8+ cells + blood: blood CD45RA+ cells + IgG antibody titer (KLH…) was 100 ppm. The LOEL (Rattus norvegicus; [7]) was 100 ppm, the NOEL (Rattus norvegicus; [7]) was 50 ppm and the LOEL (Rattus norvegicus; short-term, duration: 28 days, diet, M, Sprague-Dawley, Total serum IgG1 level) was 2 ppm. For the same compound, the NOEL (Rattus norvegicus; short-term, duration: 28 days, diet, M, Sprague-Dawley, blood CD3+ cells + blood: blood CD3+ cells + blood: blood CD3+CD4+ cells + blood: blood CD3+CD8+ cells + blood: blood CD45RA+ cells + IgG …) was 100 ppm, the LOEL (Rattus norvegicus; [8]) was 100 ppm and the NOEL (Rattus norvegicus; [8]) was 50 ppm. For the same compound, the LOEL (Rattus norvegicus; [9]) was 50 ppm, the NOEL (Rattus norvegicus; [9]) was 20 ppm and the NOEL ([1]; short-term, duration: 22 day, M/F) was 0.2 mg/L. For the same compound, the LOEL ([1]; subchronic, duration: 5 week, F) was 0.01 mg/L, the LOAEL (Mus musculus; acute, duration: 1 days, M, C57BL/6, Death: LD50) was 579 mg/kg-day and the LOAEL (Mus musculus; developmental, duration: 1 days, M, NMRI, Developmental: Altered spontaneous behavior (?60, 87.5, or 60% changes in total activity, rearing, and locomotion)) was 11.3 mg/kg-day. It also gave an LOAEL (Mus musculus; developmental, duration: 17 days, CD1, Developmental: Significant increase in cholesterol levels in fetal livers) of 3 mg/kg-day, an LOAEL (Mus musculus; [10]) of 3 mg/kg-day and an NOAEL (Mus musculus; [10]) of 0.1 mg/kg-day. For the same compound, the LOAEL (Mus musculus; developmental, duration: 19 days, F, CD1, Developmental: In PND 63 offspring fed a high fat diet, increased serum glucose levels at ?0.3 mg/kg/day in females (~40%) and 3 mg/kg/day …) was 0.3 mg/kg-day, the NOAEL (Mus musculus; developmental, duration: 19 days, F, CD1, ~24% increase in relative liver weight in dams at 3 mg/kg/day + Developmental: Increase in relative liver weight at 3 mg/kg/day in male and …) was 3 mg/kg-day and the LOAEL (Mus musculus; reproduction developmental, duration: 6 days, F, CD1, Body Weight: 21% reduction in maternal body weight gain on GDs 14-17) was 8 mg/kg-day. It also gave an NOAEL (Mus musculus; reproduction developmental, duration: 17 days, CD1, Hepatic: No alteration in maternal hepatic lipid levels) of 3 mg/kg-day, an LOAEL (Mus musculus; short-term, duration: 3 weeks, M, BALB/c, Body Weight: ~15% reduction in body weight during the recovery period) of 10 mg/kg-day and an LOAEL (Mus musculus; [11]) of 5 mg/kg-day. The NOAEL (Mus musculus; [11]) was 2.5 mg/kg-day, the LOAEL (Mus musculus; short-term, duration: 7 days, F, BALB/c, Body Weight: 41% decreased body weight gain + Immunotoxicological: Inhibition of T lymphocyte proliferation in response to sRBC / decreased…) was 20 mg/kg-day and the NOAEL (Mus musculus; short-term, duration: 7 days, F, BALB/c, Hepatic: 59% increase in relative liver weight) was 20 mg/kg-day. The LOAEL (Mus musculus; short-term, duration: 7 days, M, Immunotoxicological: Impaired response to T-cell mitogens / suppressed response to sRBC) was 5 mg/kg-day, the NOAEL (Mus musculus; short-term, duration: 10 days, M, C57BL/6, Hepatic: 41% increase in liver weight, hepatocellular hypertrophy, and decreased serum cholesterol levels) was 6 mg/kg-day and the LOAEL (Mus musculus; [12]) was 0.025 mg/kg-day. It also gave an NOAEL (Mus musculus; [12]) of 0.005 mg/kg-day, an LOAEL (Mus musculus; short-term, duration: 28 days, M, B6C3F1, Body Weight: 21% reduction in body weight) of 0.2 mg/kg-day and an NOAEL (Mus musculus; short-term, duration: 28 days, M, B6C3F1, Immunotoxicological: No alterations in thymic lymphocyte phenotypes, response to sRBC, or IgM antibodies to LPS) of 0.2 mg/kg-day. For the same compound, the LOAEL (Mus musculus; [13]) was 2.15 mg/kg-day, the NOAEL (Mus musculus; [13]) was 0.43 mg/kg-day and the LOAEL (Mus musculus; [14]) was 10 mg/kg-day. It also gave an NOAEL (Mus musculus; [14]) of 0.5 mg/kg-day, an NOAEL (Mus musculus; subchronic, duration: 6 weeks, M, Hepatic: Decreased plasma triglyceride, total cholesterol, non-HDL cholesterol, and HDL cholesterol levels / increased hepatic triglyceride…) of 3 mg/kg-day and an NOAEL (Mus musculus; subchronic, duration: 30 days, M, C57BL/6) of 10 mg/kg-day. It also gave an LOAEL (Mus musculus; subchronic, duration: 30 days, M, C57BL/6, Body Weight: 31% reduction in body weight (correlated with 68% reduction in feed consumption)) of 10 mg/kg-day, an LOAEL (Mus musculus; subchronic, duration: 30 days, M, C57BL/6, Hepatic: Increased liver weight (35%) and serum AST(~12%) and GGT levels (~98%) at ?[…] / increases in ALT (~45%) and ALP (~36%) at ?5 mg/…) of 2.5 mg/kg-day and an FEL [2] of 5 mg/L.
